Our source for the Ki and melting point values is US8586579B2, “Anellated pyridine compounds” (Hoffmann-La Roche Inc., priority 2010, dated 2013).

Read-outs that look alike come from different tables or passages of the source.

The target of data set [1] is human D3 receptor (Homo sapiens (Human), UniProt P35462). Description: Radioligand binding assay, [3H]-spiperone, human D3 receptor. The note with it: membranes of HEK293 EBNA cells expressing human D3; 0.5 nM [3H]-spiperone. Here is the method:
(§1) HEK293 EBNA cells were transiently transfected with expression plasmids encoding for the human D2 or D3 or for the human 5-HT2A receptor, respectively. The cells were harvested 48 h post-transfection, washed three times with cold PBS and stored at −80° C. prior to use. The pellet was suspended in cold 50 mM Tris-HCl buffer comprising 10 mM EDTA (pH 7.4) and was homogenized with a Polytron (Kinematica AG, Basel, Switzerland) for 20-30 sec at 12.000 rpm. After centrifugation at 48.000×g for 30 min at 4° C., the pellet was resuspended in cold 10 mM Tris-HCl buffer comprising 0.1 mM EDTA (pH 7.4), homogenized, and centrifuged as above. This pellet was further resuspended in a smaller volume of ice cold 10 mM Tris-HCl buffer comprising 0.1 mM EDTA (pH 7.4) and homogenized with a Polytron for 20-30 sec at 12.000 rpm. The protein content of this homogenate was determined with the Bio-Rad (Bradford) Protein Assay (Biorad Laboratories GmbH, München, Germany) according to the instructions of the manufacturer using gamma globulin as the standard. This homogenate was stored at −80° C. in aliquots and thawed immediately prior to use.
(§2) Aliquots of membrane preparations were thawed at RT, resuspended in assay buffer (D2, D3: 50 mM Tris-HCl, 120 mM NaCl, 5 mM MgCl2, 1 mM EDTA, 5 mM KCl, 1.5 mM CaCl2, pH=7.4; 5-HT2A: 50 mM Tris-HCl, 10 mM MgCl2, 1 mM EGTA, pH=7.4), homogenized with a Polytron for 20-30 sec at 12.000 rpm and adjusted to a final concentration of approximately 7.5 μg protein/well (D2, D3) and 15 μg protein/well (5-HT2A), respectively.
(§3) The binding affinity (Ki) of the compounds was determined using radioligand binding. Membranes were incubated in a total volume of 200 μl with a fixed concentration of radioligand (final concentration approximately 0.7 nM [^3H]-spiperone for D2, 0.5 nM [^3H]-spiperone for D3, and 1.1 nM [^3H]-ketanserin for 5-HT2A) and ten concentrations of test compound in ranging between 10 μM-0.1 nM for 1 h at RT. […] The nonspecific binding was determined with equally composed reaction mixtures in the presence of 10 μM unlabelled spiperone. Per well 45 μl of Microscint 40 (Perkin Elmer, Schwerzenbach, Switzerland) was added, plates for sealed, shaken for 20 min and counted for 3 min on a Topcount Microplate Scintillation Counter (Can berra Packard SA, Zürich, Switzerland) with quenching correction.
(§4) The CPM value for each duplicate of a concentration of competing compound was averaged (y1), then the % specific binding was calculated according to the equation (((y1−non-specific)/(total binding−non-specific))×100). Graphs were plotted with the % specific binding using XLfit, a curve fitting program that iteratively plots the data using Levenberg-Marquardt algorithm. The single site competition analysis equation used was y=A+((B−A)/(1+((x/C)D))), where y is the % specific binding, A is the minimum y, B is the maximum y, C is the IC50, x is the log 10 of the concentration of the competing compound and D is the slope of the curve (the Hill Coefficient). […] The affinity constant (K) was calculated using the Cheng-Prusoff equation Ki=(IC50/1+([L]/Kd), where [L] is the concentration of radioligand and Kd is the dissociation constant of the radioligand at the receptor as determined by the saturation isotherm.

The target of data set [2] is human 5-HT2A receptor (Homo sapiens (Human), UniProt P28223). Description: Radioligand binding assay, [3H]-ketanserin, human 5-HT2A receptor. Here is the method:
as §1, §2, §3, §4

Data set [3] has as its target human D2 receptor (Homo sapiens (Human), UniProt P14416). Nature of the data set: Radioligand binding assay, [3H]-spiperone, human D2 receptor. To be noted: membranes of HEK293 EBNA cells expressing human D2; 0.7 nM [3H]-spiperone. Here is the method: as §1, §2, §3
as §4, with “algorithm.” for “algorithm. The single site competition analysis equation used was y=A+((B−A)/(1+((x/C)D))), where y is the % specific binding, A is the minimum y, B is the maximum y, C is the IC50, x is the log 10 of the concentration of the competing compound and D is the slope of the curve (the Hill Coefficient).”

Setting [4] is: membranes of HEK293 EBNA cells expressing human 5-HT2A, 1.1 nM [3H]-ketanserin.

Sequence of human D2 receptor (P14416 whole entry): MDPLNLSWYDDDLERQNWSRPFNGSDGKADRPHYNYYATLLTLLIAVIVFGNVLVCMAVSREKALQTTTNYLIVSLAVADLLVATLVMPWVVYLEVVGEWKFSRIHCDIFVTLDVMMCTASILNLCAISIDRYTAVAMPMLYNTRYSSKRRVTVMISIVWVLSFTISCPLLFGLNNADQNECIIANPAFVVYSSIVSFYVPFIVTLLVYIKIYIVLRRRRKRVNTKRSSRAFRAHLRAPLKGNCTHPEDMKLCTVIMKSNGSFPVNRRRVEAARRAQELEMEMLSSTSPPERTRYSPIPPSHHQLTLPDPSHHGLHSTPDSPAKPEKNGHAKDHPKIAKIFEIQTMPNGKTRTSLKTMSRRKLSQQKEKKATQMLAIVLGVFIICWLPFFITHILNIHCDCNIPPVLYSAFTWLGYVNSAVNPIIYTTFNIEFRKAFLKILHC
Sequence of human D3 receptor (P35462 whole entry): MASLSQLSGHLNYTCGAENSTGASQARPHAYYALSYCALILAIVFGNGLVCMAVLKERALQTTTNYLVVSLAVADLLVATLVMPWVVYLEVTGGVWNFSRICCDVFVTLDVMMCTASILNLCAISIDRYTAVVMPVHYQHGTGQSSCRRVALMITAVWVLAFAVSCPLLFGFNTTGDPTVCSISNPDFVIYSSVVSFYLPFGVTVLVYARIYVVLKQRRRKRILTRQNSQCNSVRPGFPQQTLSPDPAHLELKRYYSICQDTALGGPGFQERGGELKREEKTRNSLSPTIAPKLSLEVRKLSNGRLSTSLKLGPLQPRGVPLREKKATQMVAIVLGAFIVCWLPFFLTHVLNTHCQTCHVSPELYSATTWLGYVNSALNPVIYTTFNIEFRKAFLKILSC
Sequence of human 5-HT2A receptor (P28223 whole entry): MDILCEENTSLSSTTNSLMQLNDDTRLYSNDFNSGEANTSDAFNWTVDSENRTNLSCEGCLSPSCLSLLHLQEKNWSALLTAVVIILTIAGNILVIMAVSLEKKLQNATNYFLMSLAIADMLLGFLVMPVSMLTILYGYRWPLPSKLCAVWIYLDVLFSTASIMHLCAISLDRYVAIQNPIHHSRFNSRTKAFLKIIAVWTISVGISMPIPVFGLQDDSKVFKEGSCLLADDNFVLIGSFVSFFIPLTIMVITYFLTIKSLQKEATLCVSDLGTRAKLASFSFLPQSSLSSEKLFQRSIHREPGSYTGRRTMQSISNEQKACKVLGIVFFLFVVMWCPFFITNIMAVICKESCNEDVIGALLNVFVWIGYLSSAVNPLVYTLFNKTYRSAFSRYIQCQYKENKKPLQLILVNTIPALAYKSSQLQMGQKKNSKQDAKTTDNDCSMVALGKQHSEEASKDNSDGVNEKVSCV

Molecule `O=C(N[C@H]1CC[C@H](CCN2CCN(c3nccc4c3CCO4)CC2)CC1)C(O)C(F)(F)F` (mixture of isomers) [Example 112, trans-(RS)—N-(4-{2-[4-(2,3-Dihydro-furo[3,2-c]pyridin-4-yl)-piperazin-1-yl]-ethyl}-cyclohexyl)-3,3,3-trifluoro-2-hydroxy-propionamide] had a melting point of 204 °C. Further, the Ki in data set [1] was determined as 37.9 nM.
Molecule `O=C(N[C@H]1CC[C@H](CCN2CCN(c3nccc4c3CCO4)CC2)CC1)c1ccc(Cl)cc1Cl` [Example 132, trans-2,4-Dichloro-N-(4-{2-[4-(2,3-dihydro-furo[3,2-c]pyridin-4-yl)-piperazin-1-yl]-ethyl}-cyclohexyl)-benzamide] had a melting point of 203.5 °C. For the same molecule, in data set [1], the Ki was found to be 26.7 nM. In data set [2] (setting [4]), the inhibition constant Ki is 21.7 nM.
Molecule `O=C(CC1COCCO1)N[C@H]1CC[C@H](CCN2CCN(c3nccc4c3CCO4)CC2)CC1` (mixture of isomers) [Example 37, trans-N-(4-{2-[4-(2,3-Dihydrofuro[3,2-c]pyridin-4-yl)-piperazin-1-yl]-ethyl}-cyclohexyl)-2-(rac-1,4-dioxan-2-yl)-acetamide] gave a melting point of 186 °C. Also, the Ki in data set [3] is 1470 nM. In data set [2] (setting [4]), the Ki was 9.7 nM.
With `O=C(N[C@H]1CC[C@H](CCN2CCN(c3nccc4c3CCO4)CC2)CC1)c1ccnc2ccccc12` [Example 62, Quinoline-4-carboxylic acid trans-(4-{2-[4-(2,3-dihydro-furo[3,2-c]pyridin-4-yl)-piperazin-1-yl]-ethyl}-cyclohexyl)-amide], the melting point was determined as 210 °C. Besides, the Ki in data set [1] stood at 10.7 nM. Further, the Ki in data set [2] (setting [4]) amounted to 3.62 nM.
On to `O=C(CO)N[C@H]1CC[C@H](CCN2CCN(c3nccc4occc34)CC2)CC1` [Example 7, N-{trans-4-[2-(4-Furo[3,2-c]pyridin-4-yl-piperazin-1-yl)-ethyl]-cyclohexyl}-2-hydroxy-acetamide], for which the results for the Ki in data set [3], in data set [1] and in data set [2] (setting [4]) were 1360 nM, 43 nM and 5.6 nM, respectively.
The molecule `O=C(N[C@H]1CC[C@H](CCN2CCN(c3nccc4c3CCO4)CC2)CC1)C1CCCOC1` (mixture of isomers) [Example 53, rac-Tetrahydro-pyran-3-carboxylic acid trans-(4-{2-[4-(2,3-dihydro-furo[3,2-c]pyridin-4-yl)-piperazin-1-yl]-ethyl}-cyclohexyl)-amide] registered a melting point of 216 °C. Also, the Ki in data set [1] stood at 28.8 nM.
Take `COCCC(=O)N[C@H]1CC[C@H](CCN2CCN(c3nccc4occc34)CC2)CC1` [Example 5, N-{trans-4-[2-(4-Furo[3,2-c]pyridin-4-yl-piperazin-1-yl)-ethyl]-cyclohexyl}-3-methoxy-propionamide]: the Ki in data set [3] came to 1350 nM; in data set [1], 24 nM; in data set [2] (setting [4]) it was 8.1 nM.
Taken in the same sequence, the figures for `O=C(C[C@H]1CC[C@H](O)CC1)N[C@H]1CC[C@H](CCN2CCN(c3nccc4sccc34)CC2)CC1` [Example 28, 2-(trans-4-Hydroxy-cyclohexyl)-N-{trans-4-[2-(4-thieno[3,2-c]pyridin-4-yl-piperazin-1-yl)-ethyl]-cyclohexyl}-acetamide] were 392 nM, 6 nM and 4 nM.
Molecule `O=C(N[C@H]1CC[C@H](CCN2CCN(c3nccc4c3CCO4)CC2)CC1)C1CCCO1` (mixture of isomers) [Example 43, trans-N-(4-{2-[4-(2,3-Dihydrofuro[3,2-c]pyridin-4-yl)-piperazin-1-yl]-ethyl}-cyclohexyl)-rac-tetrahydrofuran-2-carboxamide] returned a melting point of 176.5 °C. In addition, the Ki in data set [2] (setting [4]) was 6.3 nM.
As for `CO[C@@H]1CC[C@@H](CC(=O)N[C@H]2CC[C@H](CCN3CCN(c4nccc5occc45)CC3)CC2)C1` (racemic) [Example 2, N-{trans-4-[2-(4-Furo[3,2-c]pyridin-4-yl-piperazin-1-yl)-ethyl]-cyclohexyl}-2-(trans-3-methoxy-cyclopentyl)-acetamide], the Ki in data set [3] worked out at 802 nM; in data set [1], 28.8 nM; in data set [2] (setting [4]), 6.4 nM.
Taken in the same sequence, the figures for `CCS(=O)(=O)N[C@H]1CC[C@H](CCN2CCN(c3nccc4sccc34)CC2)CC1` [Example 31, Ethanesulfonic acid {trans-4-[2-(4-thieno[3,2-c]pyridin-4-yl-piperazin-1-yl)-ethyl]-cyclohexyl}-amide] were 217 nM, 4.3 nM and 2.9 nM.
The matching figures for `CO[C@H]1CC[C@H](CC(=O)N[C@H]2CC[C@H](CCN3CCN(c4nccc5sccc45)CC3)CC2)C1` [Example 26, 2-((1S,3S)-3-Methoxy-cyclopentyl)-N-{trans-4-[2-(4-thieno[3,2-c]pyridin-4-yl-piperazin-1-yl)-ethyl]-cyclohexyl}-acetamide]: 246 nM, 3 nM and 4.3 nM.
In the case of `CC(=O)N[C@H]1CC[C@H](CCN2CCN(c3nccc4occc34)CC2)CC1` [Example 1, N-{trans-4-[2-(4-Furo[3,2-c]pyridin-4-yl-piperazin-1-yl)-ethyl]-cyclohexyl}-acetamide], the Ki turned out to be 486 nM in data set [3], 18.3 nM in data set [1] and 9.1 nM in data set [2].
Turning to `CO[C@@H]1CC[C@@H](CC(=O)N[C@H]2CC[C@H](CCN3CCN(c4nccc5sccc45)CC3)CC2)C1` [Example 25, 2-((1R,3R)-3-Methoxy-cyclopentyl)-N-{trans-4-[2-(4-thieno[3,2-c]pyridin-4-yl-piperazin-1-yl)-ethyl]-cyclohexyl}-acetamide], the Ki in data set [3] turned out to be 234 nM; in data set [1], 2.7 nM; in data set [2] (setting [4]) it was 4.9 nM.
Turning to `O=C(N[C@H]1CC[C@H](CCN2CCN(c3nccc4sccc34)CC2)CC1)C1CCOCC1` [Example 24, Tetrahydro-pyran-4-carboxylic acid {trans-4-[2-(4-thieno[3,2-c]pyridin-4-yl-piperazin-1-yl)-ethyl]-cyclohexyl}-amide], the values for the Ki in data set [3], in data set [1] and in data set [2] were 992 nM, 3.6 nM and 1.7 nM, respectively.
On to `COCCC(=O)N[C@H]1CC[C@H](CCN2CCN(c3nccc4sccc34)CC2)CC1` [Example 19, 3-Methoxy-N-{trans-4-[2-(4-thieno[3,2-c]pyridin-4-yl-piperazin-1-yl)-ethyl]-cyclohexyl}-propionamide], for which the figures for the Ki in data set [3], in data set [1] and in data set [2] were 305 nM, 1.9 nM and 3.5 nM, respectively.
For the molecule `CCS(=O)(=O)N[C@H]1CC[C@H](CCN2CCN(c3nccc4occc34)CC2)CC1` [Example 16, Ethanesulfonic acid {trans-4-[2-(4-furo[3,2-c]pyridin-4-yl-piperazin-1-yl)-ethyl]-cyclohexyl}-amide], the results for the Ki in data set [3], in data set [1] and in data set [2] (setting [4]) were 780 nM, 30.6 nM and 8.5 nM, respectively.
Taken in the same sequence, the figures for `O=C(CC1CCOCC1)N[C@H]1CC[C@H](CCN2CCN(c3nccc4occc34)CC2)CC1` [Example 10, N-{trans-4-[2-(4-Furo[3,2-c]pyridin-4-yl-piperazin-1-yl)-ethyl]-cyclohexyl}-2-(tetrahydro-pyran-4-yl)-acetamide] were 683 nM, 30.3 nM and 6.1 nM.

For orientation: Ki means a measure of affinity in units of concentration, obtained from inhibition or displacement. In general, melting point refers to the temperature of the solid-liquid transition.
